Test results as given in patent publication US7482379B2, “Propenoyl hydrazides” (priority 2004, dated 2009).

Legend:
[1] = target: T1, Caspase-2 (Homo sapiens, UniProt P42575); assay: Caspase-2 progress curve inhibition assay; details: second-order rate constant; Cbz-VDVAD-AFC substrate; Pipes buffer pH 7.2
T1 sequence (P42575 170-333 limits assumed): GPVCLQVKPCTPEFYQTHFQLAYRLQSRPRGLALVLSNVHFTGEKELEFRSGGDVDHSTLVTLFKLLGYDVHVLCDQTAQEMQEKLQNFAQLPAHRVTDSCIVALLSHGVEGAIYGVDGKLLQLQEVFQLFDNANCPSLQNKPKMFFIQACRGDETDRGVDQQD
T1 sequence (P42575 348-452 limits assumed): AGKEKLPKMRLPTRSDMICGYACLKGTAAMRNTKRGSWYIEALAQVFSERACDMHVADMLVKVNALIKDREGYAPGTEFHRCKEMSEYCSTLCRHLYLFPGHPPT
Procedure: Inhibition rates were determined by the progress curve method known in the art. This method is suitable for measuring irreversible inhibition rates with fast inhibitors, where the inhibitor, the substrate and the enzyme are incubated together and the rate of substrate hydrolysis is measured continuously. The rate of substrate hydrolysis in the presence of the inhibitor was monitored for 20 minutes. The progress curve of inhibition, where the product formation approaches an asymptote is described in the equation ln([P∞]−[P])=ln[P∞]−A[I]t where [P] and [P∞] are the product concentrations at t and t=∞ respectively, A is the apparent rate constant in the presence of the substrate. The apparent rate constants were determined from the slopes of plots of ln ([P∞]−[P]) versus time (t) in seconds as previously described, where A=slope/[I].
(§1) For competitive and irreversible inhibition, the apparent rate constant is converted to the second order rate constant k2 by taking into consideration the effect of the substrate concentration on the apparent rate constant. The second order rate constant is described as in the equation: k2=A*(1+[S]/KM)
(§2) The concentration of the caspase-3 stock solution was 2 nM in the assay buffer. Assay buffer is a 1:1 mixture of caspase buffer (40 mM Pipes, 200 mM NaCl, 0.2% (w/v) CHAPS, sucrose 20% (w/v)) and 20 mM DTT solution in H2O at pH 7.2. The concentration of the substrate stock solution was 2 mM in DMSO. The enzyme was pre-activated for 10 min at 37° C. in the assay buffer. […] 50 μL of 2 nM enzyme stock solution (final concentration: 1 nM) was added to the mixture after 1 min and reading started immediately for 20 min at 37° C. Inhibition experiments were repeated in duplicate and standard deviations determined.
The inhibitor stock solution concentrations varied from 5×10^−3 M to 1×10^−4 M in DMSO.

[2] = target: T2, Caspase-9 (Homo sapiens, UniProt P55211); assay: Caspase-9 progress curve inhibition assay; details: second-order rate constant; Ac-LEHD-AFC substrate; Hepes buffer pH 7.0 with 0.7 M sodium citrate
T2 sequence (P55211 1-315 limits assumed): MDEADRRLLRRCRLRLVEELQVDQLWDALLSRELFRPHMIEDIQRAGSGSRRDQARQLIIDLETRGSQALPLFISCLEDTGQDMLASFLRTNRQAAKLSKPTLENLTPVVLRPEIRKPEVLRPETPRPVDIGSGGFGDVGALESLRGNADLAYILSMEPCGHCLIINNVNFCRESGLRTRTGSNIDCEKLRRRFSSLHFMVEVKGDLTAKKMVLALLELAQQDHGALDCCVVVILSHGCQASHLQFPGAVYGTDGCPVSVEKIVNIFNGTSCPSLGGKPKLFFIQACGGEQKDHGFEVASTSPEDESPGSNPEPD
T2 sequence (P55211 331-416 limits assumed): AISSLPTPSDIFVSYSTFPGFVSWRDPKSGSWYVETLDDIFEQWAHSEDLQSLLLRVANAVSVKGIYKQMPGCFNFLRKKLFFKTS
Procedure: Caspases-2, -3, -6, -7, -8, -9 and -10 were expressed in E. coli and purified in Guy Salvesen's laboratory at the Burnham Institute, La Jolla, Calif., according to the methods known in the art. Inhibition rates were determined by the progress curve method known in the art. This method is suitable for measuring irreversible inhibition rates with fast inhibitors, where the inhibitor, the substrate and the enzyme are incubated together and the rate of substrate hydrolysis is measured continuously. The rate of substrate hydrolysis in the presence of the inhibitor was monitored for 20 minutes. The progress curve of inhibition, where the product formation approaches an asymptote is described in the equation ln([P∞]−[P])=ln[P∞]−A[I]t where [P] and [P∞] are the product concentrations at t and t=∞ respectively, A is the apparent rate constant in the presence of the substrate. The apparent rate constants were determined from the slopes of plots of ln ([P∞]−[P]) versus time (t) in seconds as previously described, where A=slope/[I].
as §1
Assay buffer is a 1:1 mixture of buffer (200 mM Hepes, 100 mM NaCl, 0.02% (w/v) CHAPS, sucrose 20% (w/v)) and 20 mM DTT solution in H2O at pH 7.0). The assay buffer was supplemented with 0.7 M sodium citrate. The enzyme was pre-activated for 10 min at 37° C. in the assay buffer.

[3] = target: Caspase-8 (Homo sapiens, UniProt Q14790); assay: Caspase-8 progress curve inhibition assay; details: second-order rate constant; Ac-DEVD-AMC substrate; Pipes buffer pH 7.2
Sequence of Caspase-8 (Q14790 217-374 limits assumed): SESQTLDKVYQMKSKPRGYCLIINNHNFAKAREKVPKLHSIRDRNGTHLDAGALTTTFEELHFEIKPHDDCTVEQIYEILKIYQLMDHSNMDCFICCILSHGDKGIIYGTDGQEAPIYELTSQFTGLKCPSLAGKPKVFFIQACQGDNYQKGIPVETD
Sequence of Caspase-8 (Q14790 385-479 limits assumed): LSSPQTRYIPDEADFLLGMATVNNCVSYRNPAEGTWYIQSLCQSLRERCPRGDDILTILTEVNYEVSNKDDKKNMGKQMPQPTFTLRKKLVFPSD

[4] = target: T3, Caspase-7 (Homo sapiens, UniProt P55210); assay: Caspase-7 progress curve inhibition assay; details: second-order rate constant; Ac-DEVD-AMC substrate; Pipes buffer pH 7.2
T3 sequence (P55210 24-198 limits assumed): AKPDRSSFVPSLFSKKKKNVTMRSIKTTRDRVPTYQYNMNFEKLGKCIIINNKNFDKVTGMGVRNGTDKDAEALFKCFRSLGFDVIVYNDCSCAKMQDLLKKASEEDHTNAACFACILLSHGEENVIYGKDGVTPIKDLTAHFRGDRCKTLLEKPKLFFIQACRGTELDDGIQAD
T3 sequence (P55210 207-303 limits assumed): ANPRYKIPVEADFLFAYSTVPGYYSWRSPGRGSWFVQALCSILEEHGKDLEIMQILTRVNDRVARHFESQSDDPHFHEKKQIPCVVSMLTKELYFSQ

[5] = target: T4, Caspase-3 (Homo sapiens, UniProt P42574); assay: Caspase-3 progress curve inhibition assay; details: for k2 Caspase-3: second-order rate constant, Ac-DEVD-AMC substrate, Pipes buffer pH 7.2
T4 sequence (P42574 29-175 limits assumed): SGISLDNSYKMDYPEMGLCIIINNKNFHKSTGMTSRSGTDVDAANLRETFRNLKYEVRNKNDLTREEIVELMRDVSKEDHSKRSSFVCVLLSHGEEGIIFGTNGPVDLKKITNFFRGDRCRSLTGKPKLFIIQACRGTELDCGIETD
T4 sequence (P42574 176-277 limits assumed): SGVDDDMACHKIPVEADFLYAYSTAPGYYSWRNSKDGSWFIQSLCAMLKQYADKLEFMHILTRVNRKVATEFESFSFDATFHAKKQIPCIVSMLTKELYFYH
Procedure: Caspase-2, -3, -6, -7, -8, -9 and -10. […] Inhibition rates were determined by the progress curve method known in the art. This method is suitable for measuring irreversible inhibition rates with fast inhibitors, where the inhibitor, the substrate and the enzyme are incubated together and the rate of substrate hydrolysis is measured continuously. The rate of substrate hydrolysis in the presence of the inhibitor was monitored for 20 minutes. The progress curve of inhibition, where the product formation approaches an asymptote is described in the equation ln([P∞]−[P])=ln[P∞]−A[I]t where [P] and [P∞] are the product concentrations at t and t=∞ respectively, A is the apparent rate constant in the presence of the substrate. The apparent rate constants were determined from the slopes of plots of ln ([P∞]−[P]) versus time (t) in seconds as previously described, where A=slope/[I].
as §1, §2

[6] = target: T5, Caspase-10 (Homo sapiens, UniProt Q92851); assay: Caspase-10 progress curve inhibition assay; details: second-order rate constant; Ac-DEVD-AMC substrate; Hepes/PEG buffer pH 7.0
T5 sequence (Q92851 220-415 limits assumed): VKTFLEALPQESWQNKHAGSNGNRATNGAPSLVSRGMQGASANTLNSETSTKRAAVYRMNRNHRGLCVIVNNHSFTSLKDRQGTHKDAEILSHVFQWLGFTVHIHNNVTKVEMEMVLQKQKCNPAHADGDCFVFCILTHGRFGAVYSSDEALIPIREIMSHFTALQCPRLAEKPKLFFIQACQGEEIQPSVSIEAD
T5 sequence (Q92851 416-521 limits assumed): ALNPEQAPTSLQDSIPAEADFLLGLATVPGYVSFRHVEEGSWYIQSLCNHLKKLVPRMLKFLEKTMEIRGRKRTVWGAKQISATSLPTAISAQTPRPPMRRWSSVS
Procedure: Caspase-2, -3, -6, -7, -8, -9 and -10. Caspases-2, -3, -6, -7, -8, -9 and -10 were expressed in E. coli and purified in Guy Salvesen's laboratory at the Burnham Institute, La Jolla, Calif., according to the methods known in the art. Inhibition rates were determined by the progress curve method known in the art. This method is suitable for measuring irreversible inhibition rates with fast inhibitors, where the inhibitor, the substrate and the enzyme are incubated together and the rate of substrate hydrolysis is measured continuously. The rate of substrate hydrolysis in the presence of the inhibitor was monitored for 20 minutes. The progress curve of inhibition, where the product formation approaches an asymptote is described in the equation ln([P∞]−[P])=ln[P∞]−A[I]t where [P] and [P∞] are the product concentrations at t and t=∞ respectively, A is the apparent rate constant in the presence of the substrate. The apparent rate constants were determined from the slopes of plots of ln ([P∞]−[P]) versus time (t) in seconds as previously described, where A=slope/[I].
as §1
Assay buffer is a 1:1 mixture of buffer (200 mM Hepes, 0.2% (w/v) CHAPS, PEG 20% (w/v)) and 20 mM DTT solution in H2O at pH 7.0). The enzyme was pre-activated for 10 min at 25° C. in the assay buffer.

[7] = target: T6, Caspase-6 (Homo sapiens, UniProt P55212); assay: Caspase-6 progress curve inhibition assay; details: second-order rate constant; Ac-DEVD-AMC substrate; Pipes buffer pH 7.2
T6 sequence (P55212 24-179 limits assumed): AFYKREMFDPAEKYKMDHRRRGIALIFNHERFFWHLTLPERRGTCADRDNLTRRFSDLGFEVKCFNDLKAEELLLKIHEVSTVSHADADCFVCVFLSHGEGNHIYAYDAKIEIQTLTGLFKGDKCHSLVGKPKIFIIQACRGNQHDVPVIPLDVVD
T6 sequence (P55212 194-293 limits assumed): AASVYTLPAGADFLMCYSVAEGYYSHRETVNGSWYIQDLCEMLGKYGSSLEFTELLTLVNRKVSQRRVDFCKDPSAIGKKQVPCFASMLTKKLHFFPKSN

Row | Compound | k2 Caspase-2 [1] | k2 Caspase-9 [2] | k2 Caspase-8 [3] | k2 Caspase-7 [4] | k2 Caspase-3 [5] | k2 Caspase-10 [6] | k2 Caspase-6 [7] | selectivity: inhibits caspase-3 more potently than caspase-6 ([5]; ratio of k2 caspase-3 to caspase-6) | selectivity: inhibits caspase-3 more potently than caspase-8 ([5]; ratio of k2 caspase-3 to caspase-8) | k2 Caspase-3 ([5]; listed as Cbz-Asp-Glu-Val-AAsp-CH═CH—CON(Bzl)2)
1 | CC[C@H](C)[C@H](NC(=O)OCc1ccccc1)C(=O)N[C@@H](CCC(=O)O)C(=O)N[C@H](C(=O)NN(CC(=O)O)C(=O)/C=C/C(=O)NCc1ccccc1)[C@@H](C)O (relative stereo) [Cbz-Ile-Glu-Thr-AAsp-CH═CH—CONHCH2Ph, N^1-trans-(3-Benzylcarbamoylpropenoyl)-N^2—(N-benzyloxycarbonylisoleucylglutamylthreonyl)-N^1-carboxylmethylhydrazine] | 15 M⁻¹ s⁻¹ | 440 M⁻¹ s⁻¹ | 61,300 M^−1s^−1 | 100 M⁻¹ s⁻¹ | 2,250 M^−1s^−1 | 503 M⁻¹ s⁻¹ | 16,800 M^−1s^−1 | – | – | –
2 | CC[C@H](C)[C@H](NC(=O)OCc1ccccc1)C(=O)N[C@@H](CCC(=O)O)C(=O)N[C@H](C(=O)NN(CC(=O)O)C(=O)/C=C/C(=O)N(C)Cc1ccccc1)[C@@H](C)O (relative stereo) [Cbz-Ile-Glu-Thr-AAsp-CH═CH—CON(CH3)CH2Ph, N^1-trans-(3-Benzylmethylcarbamoylpropenoyl)-N^2—(N-benzyloxycarbonylisoleucylglutamylthreonyl)-N^1-carboxylmethylhydrazine] | 95 M⁻¹ s⁻¹ | 845 M⁻¹ s⁻¹ | 59,700 M^−1s^−1 | 390 M⁻¹ s⁻¹ | 6,000 M^−1s^−1 | 8,500 M^−1s^−1 | 45,900 M^−1s^−1 | – | – | –
3 | CCOC(=O)/C=C/C(=O)N(CC(=O)O)NC(=O)[C@@H](NC(=O)[C@H](CCC(=O)O)NC(=O)[C@@H](NC(=O)OCc1ccccc1)C(C)C)C(C)C (relative stereo) [Cbz-Val-Glu-Val-AAsp-CH═CH—COOEt, N^2—(N-Benzyloxycarbonylvalylglutamylvalyl)-N^1-carboxymethyl-N^1-trans-(3-ethoxycarbonylpropenoyl)hydrazine] | 115 M⁻¹ s⁻¹ | 340 M⁻¹ s⁻¹ | 175,800 M^−1s^−1 | 3,650 M^−1s^−1 | 41,200 M^−1s^−1 | 6,600 M^−1s^−1 | 83,600 M^−1s^−1 | – | – | –
4 | CC(C)C[C@H](NC(=O)OCc1ccccc1)C(=O)N[C@@H](CCC(=O)O)C(=O)N[C@H](C(=O)NN(CC(=O)O)C(=O)/C=C/C(=O)N(C)Cc1ccccc1)[C@@H](C)O (relative stereo) [Cbz-Leu-Glu-Thr-AAsp-CH═CH—CON(CH3)CH2Ph, N^1-trans-(3-Benzylmethylcarbamoylpropenoyl)-N^2—(N-benzyloxycarbonylleucylglutamylthreonyl)-N^1-carboxylmethylhydrazine] | 140 M⁻¹ s⁻¹ | 4,320 M^−1s^−1 | 169,000 M^−1s^−1 | 520 M⁻¹ s⁻¹ | 6,000 M^−1s^−1 | 8,430 M^−1s^−1 | 10,800 M^−1s^−1 | – | – | –
5 | CC(C)[C@H](NC(=O)[C@H](CCC(=O)O)NC(=O)[C@H](CC(=O)O)NC(=O)OCc1ccccc1)C(=O)NN(CC(=O)O)C(=O)/C=C/C(=O)N(Cc1ccccc1)Cc1ccccc1 (relative stereo) [Cbz-Asp-Glu-Val-AAsp-CH═CH—CON(CH2Ph)2, N^2—(N-Benzyloxycarbonylaspartylglutamylvalyl)-N^1-carboxymethyl-N^1-trans-(3-dibenzylcarbamoylpropenoyl)hydrazine] | 110 M⁻¹ s⁻¹ | 450 M⁻¹ s⁻¹ | 8,600 M^−1s^−1 | 359,000 M^−1s^−1 | – | 6,300 M^−1s^−1 | 5,100 M^−1s^−1 | 588 fold | 348 fold | 3,000,000 M^−1s^−1
6 | CC(C)C[C@H](NC(=O)OCc1ccccc1)C(=O)N[C@@H](CCC(=O)O)C(=O)N[C@H](C(=O)NN(CC(=O)O)C(=O)/C=C/C(=O)NCc1ccccc1)[C@@H](C)O (relative stereo) [Cbz-Leu-Glu-Thr-AAsp-CH═CH—CONHCH2Ph, N^1-trans-(3-Benzylcarbamoylpropenoyl)-N^2—(N-benzyloxycarbonylleucylglutamylthreonyl)-N^1-carboxylmethylhydrazine] | 66 M⁻¹ s⁻¹ | 1,400 M^−1s^−1 | 70,170 M^−1s^−1 | 340 M⁻¹ s⁻¹ | 1,120 M^−1s^−1 | 14,400 M^−1s^−1 | 1,550 M^−1s^−1 | – | – | –
7 | CC(C)[C@H](NC(=O)[C@H](CCC(=O)O)NC(=O)[C@H](CC(=O)O)NC(=O)OCc1ccccc1)C(=O)NN(CC(=O)O)C(=O)/C=C/C(=O)N(C)Cc1ccccc1 (relative stereo) [Cbz-Asp-Glu-Val-AAsp-CH═CH—CON(CH3)CH2Ph, N^1-trans-(3-Benzylmethylcarbamoylpropenoyl)-N^2—(N-benzyloxycarbonylaspartylglutamylvalyl)-N^1-carboxymethylhydrazine] | 660 M⁻¹ s⁻¹ | 820 M⁻¹ s⁻¹ | 90,300 M^−1s^−1 | 275,000 M^−1s^−1 | 2,640,000 M^−1s^−1 | 29,400 M^−1s^−1 | 9,500 M^−1s^−1 | – | – | –
8 | CC(C)C[C@H](NC(=O)OCc1ccccc1)C(=O)N[C@@H](CCC(=O)O)C(=O)N[C@H](C(=O)NN(CC(=O)O)C(=O)/C=C/C(=O)Nc1ccccc1)[C@@H](C)O (relative stereo) [Cbz-Leu-Glu-Thr-AAsp-CH═CH—CONHPh, N^2—(N-Benzyloxycarbonylleucylglutamylthreonyl)-N^1-carboxylmethyl-N^1-trans-(3-phenylcarbamoylpropenoyl)hydrazine] | 290 M⁻¹ s⁻¹ | 1,190 M^−1s^−1 | 176,000 M^−1s^−1 | 730 M⁻¹ s⁻¹ | 4,700 M^−1s^−1 | 6,050 M^−1s^−1 | 11,400 M^−1s^−1 | – | – | –
9 | CC(C)C[C@H](NC(=O)OCc1ccccc1)C(=O)N[C@@H](CCC(=O)O)C(=O)N[C@H](C(=O)NN(CC(=O)O)C(=O)/C=C/C(=O)NCc1ccc(F)cc1)[C@@H](C)O (relative stereo) [N^2—(N-Benzyloxycarbonylleucylglutamylthreonyl)-N^1-carboxylmethyl-N^1-trans-(3-(4-fluorobenzyl)carbamoylpropenoyl)hydrazine] | 70 M⁻¹ s⁻¹ | 1,695 M^−1s^−1 | 171,000 M^−1s^−1 | 410 M⁻¹ s⁻¹ | 4,490 M^−1s^−1 | 9,380 M^−1s^−1 | 3,100 M^−1s^−1 | – | – | –
